The series is described as follows: Solubility of clobazam in COSF liquid mix and oral films. In kind it is physicochemical. Conditions: API or films in 1.5 ml water; wet mass as such. On the procedure:
An experiment was conducted to assess the solubility of clobazam in the liquid mix (pre-drying) and oral films (COSF). Oral thin films containing 10 mg and 20 mg clobazam were prepared and then dissolved in 1.5 ml water. Two other samples were evaluated—one being the active in water (without the excipients added to the composition for oral films); and second being the liquid mix for the film but tested prior to film forming (i.e., drying).

As for `CN1C(=O)CC(=O)N(c2ccccc2)c2cc(Cl)ccc21` [COSF API 10 mg, clobazam], the “% Clobazam Dissolved in sample” value was 1.576% and the “Actual Clobazam (mg/ml) in supernatant” value was determined as 0.11 mg/mL.

Source of the values: patent publication US12403090B2, “Oral film compositions and dosage forms having precise active dissolution profiles” (Aquestive Therapeutics, Inc., priority 2018, dated 2025).
